{
  "source": "paper PMC10197776",
  "about": "(Research Square, 2023)",
  "key": {"SARS-CoV-2 3CL^pro": {"target": "SARS-CoV-2 3CL^pro (Severe acute respiratory syndrome coronavirus 2, UniProt P0DTD1)", "experiment": "biochemical", "assay_type": "biochemical", "details": "for IC50: SARS-CoV-2 3CLpro"}, "[1]": {"experiment": "Intrinsic clearance in human S9 fractions", "assay_type": "in vitro ADME"}, "[2]": {"experiment": "Intrinsic clearance in human microsomes", "assay_type": "in vitro ADME"}, "SARS-CoV-2": {"tested_on": "SARS-CoV-2", "design": "method as in PMID 35352927", "details": "TMPRSS2 VeroE6 model of SARS-CoV-2 infection; read-out: EC50 (antiviral); cited from earlier work"}, "SARS-CoV2": {"tested_on": "SARS-CoV2", "design": "method as in PMID 33786375, PMID 34161756", "details": "SARS-CoV2 plaque reduction assay; read-out: antiviral EC50; cited from earlier work"}},
  "data": [
    {"compound": "O=C(Cc1cccnc1)N(Cc1cccc(Cl)c1)c1ccc(-c2cn[nH]c2)cc1", "note": "[compound 7]", "values": [
      {"measurement": "IC50", "setting": "SARS-CoV-2 3CL^pro", "value": 1270, "unit": "nM"},
      {"measurement": "LE (ligand efficiency)", "setting": "SARS-CoV-2 3CL^pro; from 3CLpro IC50", "value": 0.27},
      {"measurement": "reduction in intrinsic clearance metabolism versus 6", "setting": "[1]", "value": "two-fold reduction"},
      {"measurement": "reduction in intrinsic clearance metabolism versus 6", "setting": "[2]", "value": "two-fold reduction"}
    ]},
    {"compound": "Cn1cnc(Cn2c(=O)[nH]/c(=N\\c3cc4cn(C)nc4cc3Cl)n(Cc3cc(F)c(F)cc3F)c2=O)n1", "note": "[compound 2, Ensitrelvir]", "values": [
      {"measurement": "EC50", "setting": "SARS-CoV-2", "value": 370, "unit": "nM"}
    ]},
    {"compound": "N#Cc1ccccc1-c1cc(-c2cc(Cl)cc(OCC3CC3)c2)c(=O)n(-c2cccnc2)c1", "note": "[compound 3]", "values": [
      {"measurement": "EC50", "setting": "SARS-CoV2", "value": 980, "unit": "nM"}
    ]},
    {"compound": "O=C(Cc1cncc2ccccc12)N(Cc1cc(F)cc(Cl)c1)c1ccc(-c2c[nH]cn2)cc1", "note": "[compound 27]", "values": [
      {"measurement": "fold improvement in IC50 compared to monocyclic pyridine 19", "setting": "SARS-CoV-2 3CL^pro; IC50 ratio vs 19", "value": "> 6", "unit": "fold"},
      {"measurement": "IC50", "setting": "SARS-CoV-2 3CL^pro", "value": 26, "unit": "nM"},
      {"measurement": "LipE", "setting": "SARS-CoV-2 3CL^pro; from 3CLpro IC50 and calculated properties", "value": 2.24}
    ]}
  ]
}
